# Reference: patent publication US10168342B2, “Lipid probes and uses thereof” (THE SCRIPPS RESEARCH INSTITUTE, priority 2015, dated 2019)
# Read-outs that look alike come from different tables or passages of the source.
# What was measured:
# [1] = target: T1, AEA-DA lipid probe targets in Neuro2a cells (Mus musculus, UniProt Q8BIJ6); details: protein Iars2, Neuro2a cells
# T1 sequence (Q8BIJ6 49-1012): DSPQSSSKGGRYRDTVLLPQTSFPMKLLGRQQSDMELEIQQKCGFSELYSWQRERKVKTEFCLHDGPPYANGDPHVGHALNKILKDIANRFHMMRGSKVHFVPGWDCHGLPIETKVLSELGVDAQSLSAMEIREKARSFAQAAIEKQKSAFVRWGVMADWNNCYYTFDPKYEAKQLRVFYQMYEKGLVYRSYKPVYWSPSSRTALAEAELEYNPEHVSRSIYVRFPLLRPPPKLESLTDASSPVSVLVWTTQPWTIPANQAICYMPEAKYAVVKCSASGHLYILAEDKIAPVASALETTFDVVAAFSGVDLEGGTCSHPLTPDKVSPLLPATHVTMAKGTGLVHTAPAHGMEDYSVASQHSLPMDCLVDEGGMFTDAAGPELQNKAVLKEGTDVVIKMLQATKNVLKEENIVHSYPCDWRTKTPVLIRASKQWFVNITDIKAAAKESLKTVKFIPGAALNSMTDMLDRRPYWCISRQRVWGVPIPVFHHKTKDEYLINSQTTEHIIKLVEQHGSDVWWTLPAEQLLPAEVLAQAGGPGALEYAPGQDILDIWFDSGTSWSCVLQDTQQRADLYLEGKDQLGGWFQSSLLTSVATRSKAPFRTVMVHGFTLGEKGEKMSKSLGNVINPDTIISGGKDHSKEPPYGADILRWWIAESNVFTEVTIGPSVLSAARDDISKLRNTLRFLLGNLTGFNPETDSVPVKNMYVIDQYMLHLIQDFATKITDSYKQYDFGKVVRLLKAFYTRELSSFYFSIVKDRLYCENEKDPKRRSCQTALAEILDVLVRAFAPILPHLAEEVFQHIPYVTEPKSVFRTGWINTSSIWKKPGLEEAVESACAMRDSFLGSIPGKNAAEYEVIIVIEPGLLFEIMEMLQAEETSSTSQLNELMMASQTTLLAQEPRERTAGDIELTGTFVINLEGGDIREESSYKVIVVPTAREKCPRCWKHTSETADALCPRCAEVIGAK
# [2] = target: T2, AEA-DA lipid probe targets in Neuro2a cells (Mus musculus, UniProt Q99LR1)
# T2 sequence (Q99LR1 1-398): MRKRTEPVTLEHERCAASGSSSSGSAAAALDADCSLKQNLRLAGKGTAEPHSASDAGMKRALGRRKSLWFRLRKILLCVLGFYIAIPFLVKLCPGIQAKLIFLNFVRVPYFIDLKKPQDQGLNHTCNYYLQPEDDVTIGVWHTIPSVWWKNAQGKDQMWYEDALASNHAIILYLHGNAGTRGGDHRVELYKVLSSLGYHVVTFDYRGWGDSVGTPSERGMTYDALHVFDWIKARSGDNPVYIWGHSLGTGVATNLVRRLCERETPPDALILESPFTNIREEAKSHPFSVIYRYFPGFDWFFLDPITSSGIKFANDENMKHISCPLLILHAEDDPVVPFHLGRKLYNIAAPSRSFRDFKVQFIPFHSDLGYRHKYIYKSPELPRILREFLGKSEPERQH
# [3] = target: T3, AEA-DA lipid probe targets in Neuro2a cells (Mus musculus, UniProt Q9CQM2)
# T3 sequence (Q9CQM2 1-212): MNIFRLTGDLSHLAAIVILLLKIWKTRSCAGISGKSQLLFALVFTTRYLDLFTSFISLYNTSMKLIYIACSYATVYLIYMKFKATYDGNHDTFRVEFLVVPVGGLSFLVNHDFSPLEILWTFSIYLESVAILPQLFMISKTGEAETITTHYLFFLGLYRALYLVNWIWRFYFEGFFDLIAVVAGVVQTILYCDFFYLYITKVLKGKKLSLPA
# [4] = target: T4, AEA-DA lipid probe targets in Neuro2a cells (Mus musculus, UniProt Q5SW19)
# T4 sequence (Q5SW19 1-1315): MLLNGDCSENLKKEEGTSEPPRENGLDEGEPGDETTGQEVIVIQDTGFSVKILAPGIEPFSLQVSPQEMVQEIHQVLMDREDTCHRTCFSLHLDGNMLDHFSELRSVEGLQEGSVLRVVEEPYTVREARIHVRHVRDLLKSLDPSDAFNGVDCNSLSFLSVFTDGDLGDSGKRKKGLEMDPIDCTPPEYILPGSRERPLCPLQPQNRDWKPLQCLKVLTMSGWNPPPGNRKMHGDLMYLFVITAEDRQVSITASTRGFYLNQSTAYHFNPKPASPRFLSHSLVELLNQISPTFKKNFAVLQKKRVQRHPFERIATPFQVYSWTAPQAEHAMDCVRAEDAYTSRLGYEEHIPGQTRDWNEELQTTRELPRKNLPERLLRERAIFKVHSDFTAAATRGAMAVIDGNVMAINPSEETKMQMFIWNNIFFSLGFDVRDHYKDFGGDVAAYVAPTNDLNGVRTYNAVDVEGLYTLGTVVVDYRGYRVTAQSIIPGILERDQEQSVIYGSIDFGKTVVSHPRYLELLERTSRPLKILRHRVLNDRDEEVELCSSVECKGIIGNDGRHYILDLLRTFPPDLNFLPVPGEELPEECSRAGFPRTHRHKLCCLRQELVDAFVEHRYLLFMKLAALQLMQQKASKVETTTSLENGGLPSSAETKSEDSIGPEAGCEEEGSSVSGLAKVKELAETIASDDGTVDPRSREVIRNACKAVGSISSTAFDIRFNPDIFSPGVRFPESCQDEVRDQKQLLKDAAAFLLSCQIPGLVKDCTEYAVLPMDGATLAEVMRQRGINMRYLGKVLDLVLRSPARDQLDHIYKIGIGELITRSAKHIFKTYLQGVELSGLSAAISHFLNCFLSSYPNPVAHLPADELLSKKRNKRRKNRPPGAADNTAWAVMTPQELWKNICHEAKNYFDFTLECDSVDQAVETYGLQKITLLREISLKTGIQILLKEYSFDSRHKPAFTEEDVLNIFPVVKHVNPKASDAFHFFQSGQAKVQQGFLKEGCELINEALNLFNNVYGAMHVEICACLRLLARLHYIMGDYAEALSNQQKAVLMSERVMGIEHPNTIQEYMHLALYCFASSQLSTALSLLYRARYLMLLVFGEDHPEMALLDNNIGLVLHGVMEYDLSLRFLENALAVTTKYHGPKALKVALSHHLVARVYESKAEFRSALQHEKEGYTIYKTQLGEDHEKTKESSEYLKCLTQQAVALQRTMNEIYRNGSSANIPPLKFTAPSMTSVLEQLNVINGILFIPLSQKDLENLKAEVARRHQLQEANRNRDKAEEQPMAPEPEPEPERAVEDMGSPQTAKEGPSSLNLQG
Compound,SILAC ratio Kiaa0664 ([4]; competitor 25 μM),"SILAC ratio, Abhd12 ([2]; competitor 25 μM)","SILAC ratio, Kdelr2 ([3]; competitor 25 μM)",SILAC ratio (AEA-DA competition) ([1]; competitor 25 μM),also measured
"CCCCC/C=C\C/C=C\C/C=C\C/C=C\CCCC(=O)NCCO [AEA, anandamide, reference compound]",–,–,–,–,"SILAC ratio (AEA-DA competition) ([1]; competitor 200 μM): 0.9; SILAC ratio, Abhd12 ([2]; competitor 200 μM): 1.8; SILAC ratio, Kdelr2 ([3]; competitor 200 μM): 1.4"
"O=C(/C=C/c1cccnc1)NCCCCC1CCN(C(=O)c2ccccc2)CC1 [FK-866, reference compound]",1.2,1.0,1.2,–,–
"CN1CCN(C(=O)c2c(-c3ccccc3)c3cc([N+](=O)[O-])ccc3n2C)CC1 [KML110, (1-Methyl-5-nitro-3-phenyl-1H-indol-2-yl)(4-methylpiperazin-1-yl)methanone]",2.1,1.2,1.3,–,–
"CN1CCN(C(=O)c2[nH]c3ccc([N+](=O)[O-])cc3c2-c2ccccc2)CC1 [MJN228, (4-Methylpiperazin-1-yl)(5-nitro-3-phenyl-1H-indol-2-yl)methanone]",2.2,1.2,1.2,1.0,"SILAC ratio Kiaa0664 ([4]; competitor 10 μM): 1.5; SILAC ratio Kiaa0664 ([4]; competitor 50 μM): 1.0; SILAC ratio Kiaa0664 ([4]; competitor 100 μM): 1.9; SILAC ratio (AEA-DA competition) ([1]; competitor 10 μM): 0.8; SILAC ratio (AEA-DA competition) ([1]; competitor 50 μM): 0.7; SILAC ratio, Abhd12 ([2]; competitor 10 μM): 1.2; SILAC ratio, Abhd12 ([2]; competitor 50 μM): 1.2; SILAC ratio, Abhd12 ([2]; competitor 100 μM): 1.4; SILAC ratio, Kdelr2 ([3]; competitor 10 μM): 1.2; SILAC ratio, Kdelr2 ([3]; competitor 50 μM): 1.3; SILAC ratio, Kdelr2 ([3]; competitor 100 μM): 1.8"
"C=CCN(C)CCCCCCOc1ccc(C(=O)c2ccc(Br)cc2)c(F)c1 [Ro 48-8071, reference compound]",1.0,1.0,0.9,0.7,–
